# In US20040198738A1, “Preventives or remedies for diseaes caused by enos expression” (priority 2002, published 2004):
# Key:
# [1] = from treatment for Parkinson's disease in Japanese Patent Laid-Open No. 59-25323; cited from earlier work
# [2] = Acute toxicity of BH4 dihydrochloride in rat, oral administration; type: in vivo
# Description: The active ingredient used in the present invention is most preferably (6R)-L-erythro-5,6,7,8-tetrahydrobiopterin (BH4) or a salt thereof. However, analogues thereof such as (6R, S)-5,6,7,8-tetrahydrobiopterin, 1′,2′-diacetyl-5,6,7,8-tetrahydrobiopterin, sepiapterin, 6-methyl-5,6,7,8-tetrahydropterin, 6-hydroxymethyl-5,6,7,8-tetrahydropterin, 6-phenyl-5,6,7,8-tetrahydropterin, or a salt thereof, may also be used. However, needless to say, BH4 that is a natural substance existing in an organism is preferable. […] In addition, as is clear from the description of a treatment for Parkinson's disease in Japanese Patent Laid-Open No. 59-25323, the toxicity of (6R, S)-5,6,7,8-tetrahydrobiopterin, that is, non-optically pure substance, is weak. Accordingly, this compound can also be used for the treatment in the present invention. Compounds represented by the formula (I) other than the above described compounds have almost no acute toxicity.
# [3] = system: superoxide in plaque area of aorta of ApoE-KO/eNOS-Tg mice; assay: Production of superoxide in excised aorta (MCLA chemiluminescence); type: in vivo, mouse; settings: BH4 added high cholesterol diet for 8 weeks, 12 weeks old mice; vs non-administration; FIG. 4; p<0.01
# Description: Groups were prepared, each of which consisted of 6 to 8 mice (12 weeks old, ApoE-KO/eNOS-Tg) fed on BH4 added or BH4 non-added high cholesterol diet for 8 weeks in the same manner as in Example 12. The aorta was excised from these mice, peripheral tissues were eliminated, and the remaining portion was mounted on a black silicone dish filled with PBS with pH 7.4. The sample was placed in a light-shielding box to avoid interference of external light, and thereafter, MCLA was added to the chamber to the final concentration of […]. Thereafter, light emission generated as a result of the reaction between MCLA (2-methyl-6-(4-methoxyphenyl)-3,7-dihydroimidazol[1,2-a]pyrazin-3-one-hydrochloride) and superoxide anion was measured for 5 minutes. This measurement was repeated 3 times.
# The light emission data was served in a computer, and the obtained nonlinear gray scale images were converted into pseudocolor images. The intensity of chemiluminescence due to superoxide was analyzed using WinLight 32 software. The plaque area was defined as an area that was stained with Sudan III. Approximately 10 plaque areas and 10 non-plaque areas ([…]) were randomly selected from each mouse, followed by measurement. The background level was subtracted from each chemiluminescent signal intensity. […] The results are shown as relative values. […]
# ApoE-KO/eNOS-Tg mice = assay: Sclerotic lesion area of aorta (Sudan III staining, image analysis) in mice fed high cholesterol diet; type: in vivo, mouse; settings: BH4 10 mg/kg/day added to high cholesterol diet, FIG. 3
# Description: 37 mice (ApoE-KO/eNOS-Tg) produced in Example 10 were ablactated at the age of 4 weeks, and then fed on high cholesterol diet (1.25% cholesterol, 7.5% cacao butter, 7.5% casein, and 0.5% sodium cholate) for 12 weeks.
# Thereafter, the 16-week-old mice were anesthetized with pentobarbital, and the aorta was perfused with a physiological saline solution containing 10 U/ml heparin. Thereafter, the aorta corresponding to the portion from the center of the left ventricle to the bifurcation portion of the iliac artery was excised and fixed with 4% paraformaldehyde overnight. Surrounding tissues were eliminated from the distal portion (from the aortic arch to the bifurcation portion of the iliac artery) of the excised aorta. The aorta was longitudinally opened and fixed on a dish coated with silicone, and then stained with Sudan III. The obtained light microscope image was analyzed using NIH 1.61 Imaging Software. The lesion formation area was expressed by lesion area/the total area of aorta. In the figure, * denotes p<0.0001 with respect to ApoE-KO male, and the cross denotes p<0.001 with respect to ApoE-KO female.
# 6 to 8 mice (ApoE-KO/eNOS-Tg) produced in Example 10 were used per group. BH4 non-administration groups were fed on the high cholesterol diet (refer to Example 10), and BH4 administration groups were fed on the high cholesterol diet to which BH4 was added at 10 mg/kg/day. […]
# [4] = system: NO from aortic endothelium of ApoE-KO/eNOS-Tg mice; assay: Production of NO in excised aorta (DAF-2 DA fluorescence, acetylcholine stimulated); type: in vivo, mouse; settings: 12-week-old mice, high cholesterol diet for 8 weeks, BH4 administered vs not administered; FIG. 5; p<0.01
# Description: The aorta containing the portion from the aortic arch to the bifurcation portion of the iliac artery was excised from each of 12-week-old mice (ApoE-KO/eNOS-Tg) fed on a high cholesterol diet for 8 weeks. Immediately thereafter, surrounding portions were eliminated in PBS with pH 7.4. The sample was mounted on a black dish filled with a phosphate buffer (pH 7.4) containing 1.5 mmol/L calcium chloride, and it was then placed in a light-shielding box to avoid interference of external light.
# Diaminofluorescein-2 diacetate (DAF-2 DA) was added thereto to the final concentration of 10 μmol/L. Then, the sample was left at ambient temperature for 5 minutes, and thereafter, it was excited with 485 nm blue light. The fluorescence generated as a result of the reaction between DAF-2 DA and NO was detected, using a luminograph equipped with a band filter with a center of 532 nm, and measurement was carried out for 1 second at an intensity of wave length of 515 nm. To examine the production of NO from the aortic endothelium, the sample was left in 1 μmol/L acetylcholine solution for 5 minutes, and then the fluorescent image was measured. After completion of each experiment, in order to determine whether the measured sample was a plaque area or non-plaque area, the sample was stained with Sudan III and observed. […]
smiles,measurement,setting,value
"C[C@H](O)[C@H](O)C1CNc2nc(N)[nH]c(=O)c2N1 (stereo partly drawn) [(6R, S)-5,6,7,8-tetrahydrobiopterin]",toxicity,[1],weak
C[C@H](O)[C@H](O)[C@H]1CNc2[nH]c(N)nc(=O)c2N1.Cl.Cl [BH4 dihydrochloride],acute toxicity,[2],≥ 2 g/kg (body weight)
same,toxicity (in words),[2],almost no toxicity is found
"CC(O)C(O)C1CNc2nc(N)[nH]c(=O)c2N1 [BH4, (6R)-L-erythro-5,6,7,8-tetrahydrobiopterin]",production of superoxide in plaque area,[3],significantly reduced
same,arteriosclerosis,ApoE-KO/eNOS-Tg mice,suppressed
same,lesion area (lesion area/total area of aorta),"ApoE-KO/eNOS-Tg mice; vs non-administration group, p<0.05 male, p<0.01 female",reduced
same,production of NO in non-plaque area,[4],significantly increased
